Eleven molecules from ChEMBL document CHEMBL3244225, “Synthesis and biological activity of some vinyl-substituted 2-nitroimidazoles” (J Med Chem, 1977) can be followed below.

The subject of one assay is Salmonella typhimurium. The experiment in a line: Antimicrobial activity against Salmonella typhimurium Kh by tube dilution method. As to conditions: Salmonella enterica. In kind it is functional, Salmonella enterica subsp. enterica serovar Typhimurium.
The test system of another assay is Streptococcus pyogenes. The experiment in a line: Antimicrobial activity against Streptococcus haemolyticus C 203 by tube dilution method. Type of assay: functional.
Assay [1] has as its system Mycoplasmoides gallisepticum. The experiment in a line: Antimicrobial activity against Mycoplasma gallisepticum H21 C.Z.B. by tube dilution method. In kind it is functional.
Assay [2] relates to Trichomonas vaginalis. The experiment in a line: Trichomonastatic activity against Trichomonas vaginalis by tube dilution method. Type of assay: functional.
A further assay has as its system Klebsiella pneumoniae. The experiment in a line: Antimicrobial activity against Klebsiella pneumoniae I.S.M. by tube dilution method. In kind it is functional.
For the next assay, the system named is Clostridium perfringens. The assay is described as follows: Antimicrobial activity against Clostridium perfringens ISS 30543 by tube dilution method. Type of assay: functional.
The next assay has as its system Staphylococcus aureus. The experiment in a line: Antimicrobial activity against Staphylococcus aureus Tour by tube dilution method. Type of assay: functional.
The subject of assay [3] is Trichophyton mentagrophytes. The experiment in a line: Antimicrobial activity against Trichophyton mentagrophytes SKF 17410 by tube dilution method. In kind it is functional.
Another assay deals with Pseudomonas aeruginosa. The experiment in a line: Antimicrobial activity against Pseudomonas aeruginosa ATCC 10145 by tube dilution method. In kind it is functional.
For another assay, the system named is Streptococcus pneumoniae. The experiment in a line: Antimicrobial activity against Diplococcus pneumoniae UC41 by tube dilution method. Type of assay: functional.
Assay [4] deals with Trichomonas vaginalis. The experiment in a line: Trichomonacidal activity against Trichomonas vaginalis by tube dilution method. In kind it is functional.
A further assay has as its system Proteus vulgaris. The assay is described as follows: Antimicrobial activity against Proteus vulgaris X19 H ATCC 881 by tube dilution method. In kind it is functional.
For another assay, the system named is Shigella sonnei. The experiment in a line: Antimicrobial activity against Shigella sonnei ATCC 9290 by tube dilution method. Type of assay: functional.
The subject of the next assay is Escherichia coli. The assay is described as follows: Antimicrobial activity against Escherichia coli SKF 12140 by tube dilution method. Type of assay: functional.
In the next assay the test system is Candida albicans. The assay is described as follows: Antimicrobial activity against Candida albicans SKF 2270 by tube dilution method. In kind it is functional.
Assay [5] relates to Mycobacterium tuberculosis. The assay is described as follows: Antimicrobial activity against Mycobacterium tuberculosis ATCC 9360 by tube dilution method. In kind it is functional.

In general, MIC refers to the smallest concentration in the dilution series that meets the test's criterion for growth inhibition.

SMILES strings stand for the structures. Values after ≈ are worked out from the molar mass of the structure shown.

As to `CC(/C=C/c1cnc([N+](=O)[O-])n1C)=N\N(C)C`, the minimal inhibitory concentration (MIC) against Salmonella typhimurium is more than 100 µg/mL; in the assay with Streptococcus pyogenes it was more than 100 µg/mL; in assay [1], more than 100 µg/mL; in the assay with Trichomonas vaginalis [2] it was 20 µg/mL (≈ 84.3 µM); with Klebsiella pneumoniae it was more than 100 µg/mL; against Clostridium perfringens, 10 µg/mL (≈ 42.1 µM). The MIC was 100 µg/mL (≈ 421 µM) against Staphylococcus aureus; more than 100 µg/mL in assay [3]; more than 100 µg/mL against Pseudomonas aeruginosa; more than 100 µg/mL in the assay on Streptococcus pneumoniae; 50 µg/mL (≈ 211 µM) in the assay on Trichomonas vaginalis [4]; more than 100 µg/mL in the assay on Proteus vulgaris. The minimal inhibitory concentration (MIC) was more than 100 µg/mL against Shigella sonnei, 50 µg/mL (≈ 211 µM) in the assay with Escherichia coli, more than 100 µg/mL against Candida albicans and 20 µg/mL (≈ 84.3 µM) in [5].
`COC(=O)c1cnc([N+](=O)[O-])n1C`: the minimal inhibitory concentration (MIC) is 100 µg/mL (≈ 540 µM) with Salmonella typhimurium; more than 100 µg/mL in the assay on Streptococcus pyogenes; more than 100 µg/mL in assay [1]; more than 50 µg/mL in the assay with Trichomonas vaginalis [2]; more than 100 µg/mL with Klebsiella pneumoniae; 5 µg/mL (≈ 27 µM) in the assay on Clostridium perfringens. Moreover, the MIC in the assay on Staphylococcus aureus was 50 µg/mL (≈ 270 µM); in assay [3] it was more than 100 µg/mL; against Pseudomonas aeruginosa, more than 100 µg/mL; in the assay on Streptococcus pneumoniae, 50 µg/mL (≈ 270 µM); against Proteus vulgaris, more than 100 µg/mL; against Shigella sonnei, 100 µg/mL (≈ 540 µM). Besides, the values for the minimum inhibitory concentration (MIC) (in the assay on Escherichia coli; with Candida albicans; in [5]) were 20 µg/mL (≈ 108 µM), more than 100 µg/mL and more than 100 µg/mL, respectively.
As for `CC(=O)c1cnc([N+](=O)[O-])n1C`, the MIC in the assay on Salmonella typhimurium was 100 µg/mL (≈ 591 µM); in the assay with Streptococcus pyogenes, 100 µg/mL (≈ 591 µM); in assay [1] it was 100 µg/mL (≈ 591 µM); against Trichomonas vaginalis [2], 50 µg/mL (≈ 296 µM); against Klebsiella pneumoniae, 100 µg/mL (≈ 591 µM); with Clostridium perfringens it was 20 µg/mL (≈ 118 µM). Besides, the MIC was 50 µg/mL (≈ 296 µM) in the assay on Staphylococcus aureus; 50 µg/mL (≈ 296 µM) in assay [3]; more than 100 µg/mL in the assay with Pseudomonas aeruginosa; 20 µg/mL (≈ 118 µM) in the assay with Streptococcus pneumoniae; more than 100 µg/mL in the assay on Trichomonas vaginalis [4]; 100 µg/mL (≈ 591 µM) with Proteus vulgaris. Also, the minimal inhibitory concentration (MIC) against Shigella sonnei is 50 µg/mL (≈ 296 µM); against Escherichia coli, 10 µg/mL (≈ 59.1 µM); with Candida albicans, more than 100 µg/mL; in assay [5] it was 50 µg/mL (≈ 296 µM).
Consider `CC(/C=C/c1cnc([N+](=O)[O-])n1C)=N\N1CCCC(O)C1` (stereo unspecified), for which the MIC against Salmonella typhimurium is more than 100 µg/mL; against Streptococcus pyogenes, more than 100 µg/mL; in [1] it was more than 100 µg/mL; with Trichomonas vaginalis [2], 20 µg/mL (≈ 68.2 µM); in the assay on Klebsiella pneumoniae, more than 100 µg/mL; against Clostridium perfringens, 20 µg/mL (≈ 68.2 µM). For the same molecule, the MIC in the assay with Staphylococcus aureus is 20 µg/mL (≈ 68.2 µM); in [3], 100 µg/mL (≈ 341 µM); against Pseudomonas aeruginosa it was more than 100 µg/mL; in the assay with Streptococcus pneumoniae, 100 µg/mL (≈ 341 µM); with Trichomonas vaginalis [4], 50 µg/mL (≈ 170 µM); against Proteus vulgaris, more than 100 µg/mL. Further, the MIC against Shigella sonnei was more than 100 µg/mL; in the assay with Escherichia coli it was 100 µg/mL (≈ 341 µM); in the assay on Candida albicans it was more than 100 µg/mL; in assay [5], 50 µg/mL (≈ 170 µM).
On to `Cc1cc(-c2cnc([N+](=O)[O-])n2C)n(CCO)n1`, for which the MIC against Salmonella typhimurium was more than 100 µg/mL; against Streptococcus pyogenes, 50 µg/mL (≈ 199 µM); in assay [1], more than 100 µg/mL; with Trichomonas vaginalis [2] it was 10 µg/mL (≈ 39.8 µM); in the assay on Klebsiella pneumoniae it was more than 100 µg/mL; against Clostridium perfringens, 100 µg/mL (≈ 398 µM). The MIC is 20 µg/mL (≈ 79.6 µM) in the assay on Staphylococcus aureus; more than 100 µg/mL in assay [3]; more than 100 µg/mL in the assay with Pseudomonas aeruginosa; 50 µg/mL (≈ 199 µM) in the assay on Streptococcus pneumoniae; 50 µg/mL (≈ 199 µM) in the assay with Trichomonas vaginalis [4]; more than 100 µg/mL in the assay with Proteus vulgaris. Also, the minimum inhibitory concentration (MIC) is more than 100 µg/mL against Shigella sonnei, 50 µg/mL (≈ 199 µM) in the assay on Escherichia coli, more than 100 µg/mL in the assay on Candida albicans and more than 100 µg/mL in [5].
In the case of `Br.CC(/C=C/c1cnc([N+](=O)[O-])n1C)=N\NC1=NCCN1`, the MIC against Salmonella typhimurium was more than 100 µg/mL; in the assay on Streptococcus pyogenes, 20 µg/mL; in [1] it was 100 µg/mL; against Trichomonas vaginalis [2], 20 µg/mL; with Klebsiella pneumoniae, more than 100 µg/mL; against Clostridium perfringens, 100 µg/mL. The minimum inhibitory concentration (MIC) with Staphylococcus aureus was 50 µg/mL; in assay [3], more than 100 µg/mL; with Pseudomonas aeruginosa, more than 100 µg/mL; against Streptococcus pneumoniae it was 20 µg/mL; in the assay on Trichomonas vaginalis [4] it was 100 µg/mL; with Proteus vulgaris it was more than 100 µg/mL. Further, the MIC was more than 100 µg/mL with Shigella sonnei, 100 µg/mL against Escherichia coli, more than 100 µg/mL in the assay with Candida albicans and more than 100 µg/mL in assay [5].
`Cn1c(/C=[N+](/C)[O-])cnc1[N+](=O)[O-]`: the minimal inhibitory concentration (MIC) in the assay with Salmonella typhimurium was determined as 20 µg/mL (≈ 109 µM); with Streptococcus pyogenes, 50 µg/mL (≈ 272 µM); in [1] it was 20 µg/mL (≈ 109 µM); against Trichomonas vaginalis [2] it was 100 µg/mL (≈ 543 µM); with Klebsiella pneumoniae it was 50 µg/mL (≈ 272 µM); with Clostridium perfringens, 10 µg/mL (≈ 54.3 µM). The MIC with Staphylococcus aureus is 50 µg/mL (≈ 272 µM); in assay [3], more than 100 µg/mL; against Pseudomonas aeruginosa it was 100 µg/mL (≈ 543 µM); against Streptococcus pneumoniae, 50 µg/mL (≈ 272 µM); in the assay on Trichomonas vaginalis [4], more than 100 µg/mL; with Proteus vulgaris it was 20 µg/mL (≈ 109 µM). The MIC is 20 µg/mL (≈ 109 µM) against Shigella sonnei, 10 µg/mL (≈ 54.3 µM) with Escherichia coli, more than 100 µg/mL with Candida albicans and 50 µg/mL (≈ 272 µM) in assay [5].
On to `CC(/C=C/c1cnc([N+](=O)[O-])n1C)=N\N1CCN(CCO)CC1`, for which the MIC with Salmonella typhimurium is more than 100 µg/mL; in the assay on Streptococcus pyogenes, 100 µg/mL (≈ 310 µM); in assay [1], more than 100 µg/mL; in the assay with Trichomonas vaginalis [2], 20 µg/mL (≈ 62 µM); in the assay with Klebsiella pneumoniae, more than 100 µg/mL; with Clostridium perfringens it was 5 µg/mL (≈ 15.5 µM). Moreover, the MIC was 50 µg/mL (≈ 155 µM) with Staphylococcus aureus; more than 100 µg/mL in assay [3]; more than 100 µg/mL in the assay on Pseudomonas aeruginosa; 100 µg/mL (≈ 310 µM) against Streptococcus pneumoniae; 50 µg/mL (≈ 155 µM) in the assay with Trichomonas vaginalis [4]; more than 100 µg/mL in the assay on Proteus vulgaris. Further, the minimal inhibitory concentration (MIC) against Shigella sonnei was more than 100 µg/mL; against Escherichia coli, 100 µg/mL (≈ 310 µM); in the assay on Candida albicans, more than 100 µg/mL; in assay [5], 50 µg/mL (≈ 155 µM).
Turning to `Cn1c(C=O)cnc1[N+](=O)[O-]`, the MIC with Salmonella typhimurium came out at 2 µg/mL (≈ 12.9 µM); in the assay on Streptococcus pyogenes it was 50 µg/mL (≈ 322 µM); in the assay on Trichomonas vaginalis [2], 100 µg/mL (≈ 645 µM); against Klebsiella pneumoniae, 10 µg/mL (≈ 64.5 µM); with Clostridium perfringens, 10 µg/mL (≈ 64.5 µM); with Staphylococcus aureus it was 50 µg/mL (≈ 322 µM). Further, the MIC in assay [3] is 10 µg/mL (≈ 64.5 µM); against Pseudomonas aeruginosa it was 10 µg/mL (≈ 64.5 µM); with Streptococcus pneumoniae it was 20 µg/mL (≈ 129 µM); against Trichomonas vaginalis [4], more than 100 µg/mL; in the assay on Proteus vulgaris, 50 µg/mL (≈ 322 µM); against Shigella sonnei, 20 µg/mL (≈ 129 µM). The minimal inhibitory concentration (MIC) against Escherichia coli stood at 10 µg/mL (≈ 64.5 µM); in the assay with Candida albicans it was 50 µg/mL (≈ 322 µM); in assay [5], 10 µg/mL (≈ 64.5 µM).
On to `CCCCC(C(O)c1cnc([N+](=O)[O-])n1C)[N+](=O)[O-]` (stereo unspecified), for which the MIC in the assay on Salmonella typhimurium was 50 µg/mL (≈ 184 µM); with Streptococcus pyogenes it was more than 100 µg/mL; in assay [1], 50 µg/mL (≈ 184 µM); in the assay on Trichomonas vaginalis [2] it was more than 100 µg/mL; with Klebsiella pneumoniae, 100 µg/mL (≈ 367 µM); against Clostridium perfringens it was 20 µg/mL (≈ 73.5 µM). Also, the MIC is 50 µg/mL (≈ 184 µM) with Staphylococcus aureus; 50 µg/mL (≈ 184 µM) in assay [3]; 20 µg/mL (≈ 73.5 µM) in the assay on Pseudomonas aeruginosa; 100 µg/mL (≈ 367 µM) in the assay on Streptococcus pneumoniae; 100 µg/mL (≈ 367 µM) with Proteus vulgaris; 50 µg/mL (≈ 184 µM) with Shigella sonnei. For the same molecule, the MIC (against Escherichia coli; in the assay with Candida albicans; in [5]) was 50 µg/mL (≈ 184 µM) each time.
As to `O=C1CN(/N=C/c2ccc([N+](=O)[O-])o2)C(=O)N1` [NITROFURANTOIN], the minimal inhibitory concentration (MIC) is 20 µg/mL (≈ 84 µM) against Salmonella typhimurium; 50 µg/mL (≈ 210 µM) against Klebsiella pneumoniae; 10 µg/mL (≈ 42 µM) in the assay with Staphylococcus aureus; more than 100 µg/mL against Pseudomonas aeruginosa; 1 µg/mL (≈ 4.2 µM) in the assay with Streptococcus pneumoniae; 100 µg/mL (≈ 420 µM) against Proteus vulgaris. In addition, the MIC is 10 µg/mL (≈ 42 µM) in the assay on Shigella sonnei, 5 µg/mL (≈ 21 µM) against Escherichia coli and 50 µg/mL (≈ 210 µM) in assay [5].
